Measurements as given in ChEMBL document CHEMBL3804815, “Aloperine and Its Derivatives as a New Class of HIV-1 Entry Inhibitors” (ACS Med Chem Lett, 2016).
Calls of active or inactive are those of the source. The calls are words filed in the database; no cut-off is given here.

Key:
[1] = Cytotoxicity against human MT4 cells assessed as reduction in cell viability after 3 days by CellTiter-Glo luminescent assay; assay type: cell-based
[2] = system: Human immunodeficiency virus 1; test: Antiviral activity against HIV1 NL4-3 infected in human MT4 cells assessed as reduction in viral replication measured on day 3 post infection by Nano-Glo luciferase reporter gene assay; assay type: functional, organism-based; details: Human immunodeficiency virus 1, NL4-3, MT4, 72 h
COS [3] = test: Inhibition of BMS-806 resistant HIV1 YU2 gp120 T198P mutant-induced cell-cell fusion between viral envelope expressing African green monkey COS cells to CCR5 receptor expressing human TZM-bl cells at 5 uM after overnight incubation by Bright-Glo luciferase assay; assay type: cell-based; details: Human immunodeficiency virus type 1 (isolate YU2)
COS [4] = test: Inhibition of HIV1 8X gp120-induced cell-cell fusion between viral envelope expressing African green monkey COS cells and human TZM-bl cells up to 5 uM after overnight incubation by Bright-Glo luciferase assay; assay type: cell-based; details: Human immunodeficiency virus 1
[5] = Inhibition of HIV1 YU2 gp120-induced cell-cell fusion between viral envelope expressing African green monkey COS cells to CCR5 receptor expressing human TZM-bl cells after overnight incubation by Bright-Glo luciferase assay; assay type: cell-based, Human immunodeficiency virus type 1 (isolate YU2); details: Human immunodeficiency virus 1, COS
[6] = system: Human immunodeficiency virus 1; test: Antiviral activity against pseudotype HIV1 BJOX2000 harboring HIV1 subtype CRF07_BC Env assessed as inhibition of viral infection in human TZM-bl cells measured 2 days post infection by luciferase reporter gene assay; assay type: functional, organism-based; details: Human immunodeficiency virus 1, BJOX2000, TZM-bl, 48 h
[7] = Cytotoxicity against human TZM-bl cells at 20 uM; assay type: cell-based
[8] = system: Human immunodeficiency virus 1; test: Antiviral activity against pseudotype HIV1 CH119 harboring HIV1 subtype CRF07_BC Env assessed as inhibition of viral infection in human TZM-bl cells measured 2 days post infection by luciferase reporter gene assay; assay type: functional, organism-based; details: Human immunodeficiency virus 1, CH119, TZM-bl, 48 h
COS [9] = test: Inhibition of HIV1 NL4-3 Env-induced cell-cell fusion between viral envelope expressing African green monkey COS cells to CXCR4 receptor expressing human TZM-bl cells at 0.01 to 10 uM after overnight incubation by Bright-Glo luciferase assay; assay type: cell-based; details: Human immunodeficiency virus 1
[10] = system: Human immunodeficiency virus 1; test: Antiviral activity against pseudotype HIV1 25710 harboring HIV1 subtype C Env assessed as inhibition of viral infection in human TZM-bl cells measured 2 days post infection by luciferase reporter gene assay; assay type: functional, organism-based; details: Human immunodeficiency virus 1, 25710, TZM-bl, 48 h
[11] = system: Human immunodeficiency virus 1; test: Antiviral activity against pseudotype HIV1 CE0217 harboring HIV1 subtype C Env assessed as inhibition of viral infection in human TZM-bl cells measured 2 days post infection by luciferase reporter gene assay; assay type: functional, organism-based; details: Human immunodeficiency virus 1, CE0217, TZM-bl, 48 h
[12] = system: Human immunodeficiency virus 1; test: Effect on binding of HIV1 3B gp120 to CD4-IgG2 at 1 to 10 ug/ml by ELISA
[13] = system: Human immunodeficiency virus 1; test: Antiviral activity against pseudotype HIV1 X1632 harboring HIV1 subtype G Env assessed as inhibition of viral infection in human TZM-bl cells measured 2 days post infection by luciferase reporter gene assay; assay type: functional, organism-based; details: Human immunodeficiency virus 1, X1632, TZM-bl, 48 h
[14] = system: Human immunodeficiency virus 1; test: Antiviral activity against pseudotype HIV1 TRO11 harboring HIV1 subtype B Env assessed as inhibition of viral infection in human TZM-bl cells measured 2 days post infection by luciferase reporter gene assay; assay type: functional, organism-based; details: Human immunodeficiency virus 1, TRO11, TZM-bl, 48 h
[15] = system: Human immunodeficiency virus 1; test: Antiviral activity against pseudotype HIV1 CNE55 harboring HIV1 subtype CRF01_AE Env assessed as inhibition of viral infection in human TZM-bl cells measured 2 days post infection by luciferase reporter gene assay; assay type: functional, organism-based; details: Human immunodeficiency virus 1, CNE55, TZM-bl, 48 h
[16] = system: Human immunodeficiency virus 1; test: Antiviral activity against pseudotype HIV1 CE1176 harboring HIV1 subtype C Env assessed as inhibition of viral infection in human TZM-bl cells measured 2 days post infection by luciferase reporter gene assay; assay type: functional, organism-based; details: Human immunodeficiency virus 1, CE1176, TZM-bl, 48 h

Compound | EC50 [2] | CC50 at 72 h [1] | further results
COc1ccc(C(=O)NCCCCN2CCCC3=C[C@H]4C[C@H](CN5CCCC[C@H]45)[C@@H]32)cc1 | 8.13 µM | > 45.8 µM | –
O=C(NCCCCN1CCCC2=C[C@H]3C[C@H](CN4CCCC[C@H]34)[C@@H]21)c1ccc(OC(F)(F)F)cc1 | 1.12 µM | 34.6 µM | –
O=C(NCCCCN1CCCC2=C[C@H]3C[C@H](CN4CCCC[C@H]34)[C@@H]21)c1ccccc1 | > 10 µM | > 49.1 µM | –
O=C(/C=C/c1ccc2c(c1)OCO2)NCCCN1CCCC2=C[C@H]3C[C@H](CN4CCCC[C@H]34)[C@@H]21 | 7.98 µM | > 43.2 µM | –
O=C(/C=C/c1ccc2c(c1)OCO2)NCCN1CCCC2=C[C@H]3C[C@H](CN4CCCC[C@H]34)[C@@H]21 | > 10 µM | > 44.5 µM | –
O=C(/C=C/c1ccc(OC(F)(F)F)cc1)NCCCCCN1CCCC2=C[C@H]3C[C@H](CN4CCCC[C@H]34)[C@@H]21 | 2.39 µM | 6.36 µM | –
CN1CCCC2C[C@H]3C[C@H](CN4CCCC[C@H]34)[C@@H]21 (stereo not given in full) | > 10 µM | > 80.6 µM | –
COc1ccnc2[nH]cc(C(=O)C(=O)N3CCN(C(=O)c4ccccc4)C[C@H]3C)c12 | – | – | inhibition (COS [3]): inactive; inhibition (COS [4]): inactive; EC50 [5]: 0.1 µM
O=C(Cc1ccc(OC(F)(F)F)cc1)NCCCCN1CCCC2=C[C@H]3C[C@H](CN4CCCC[C@H]34)[C@@H]21 | 0.75 µM | 23 µM | EC50 [6]: 2.8 µM; Activity [7]: Non-toxic; EC50 [8]: 0.9 µM; inhibition (COS [9]): Active; EC50 [10]: 2.1 µM; EC50 [11]: 1.4 µM; Activity [12]: inactive; EC50 [13]: 2.5 µM; EC50 [14]: 1.6 µM; EC50 [15]: 4.3 µM; EC50 [16]: 2.2 µM
O=C(NCCCCN1CCCC2=C[C@H]3C[C@H](CN4CCCC[C@H]34)[C@@H]21)c1cccc(OC(F)(F)F)c1 | 3.89 µM | > 40.7 µM | –

Further lines, with some results ahead:

EC50 [2] | Compound | CC50 at 72 h [1] | further results
> 10 µM | NCCCCCCN1CCCC2=C[C@H]3C[C@H](CN4CCCC[C@H]34)[C@@H]21 | > 60.4 µM | –
> 10 µM | NCCN1CCCC2=C[C@H]3C[C@H](CN4CCCC[C@H]34)[C@@H]21 | > 73 µM | –
3.14 µM | O=C(NCCCCN1CCCC2=C[C@H]3C[C@H](CN4CCCC[C@H]34)[C@@H]21)c1ccc(OC(F)(F)F)cc1F | > 39.3 µM | –
3.17 µM | O=C(/C=C/c1ccc2c(c1)OCO2)NCCCCN1CCCC2=C[C@H]3C[C@H](CN4CCCC[C@H]34)[C@@H]21 | > 41.9 µM | –
2.06 µM | O=C(/C=C/c1ccc(OC(F)(F)F)cc1)NCCCCN1CCCC2=C[C@H]3C[C@H](CN4CCCC[C@H]34)[C@@H]21 | 9.02 µM | –
> 10 µM | NCCCN1CCCC2=C[C@H]3C[C@H](CN4CCCC[C@H]34)[C@@H]21 | > 69.4 µM | –
8 µM | NCCCCN1CCCC2=C[C@H]3C[C@H](CN4CCCC[C@H]34)[C@@H]21 | > 69.2 µM | –
0.84 µM | C1=C2CCCN(CCCCCNCc3ccccc3)[C@H]2[C@@H]2C[C@H]1[C@H]1CCCCN1C2 | 25.1 µM | –
0.96 µM | C1=C2CCCN(CCCCNCc3ccccc3)[C@H]2[C@@H]2C[C@H]1[C@H]1CCCCN1C2 | 28.6 µM | –
